For data set [1], the target named is T1, Peroxisome proliferator-activated receptor alpha (Mus musculus) (UniProt P23204).
T1 sequence (whole entry): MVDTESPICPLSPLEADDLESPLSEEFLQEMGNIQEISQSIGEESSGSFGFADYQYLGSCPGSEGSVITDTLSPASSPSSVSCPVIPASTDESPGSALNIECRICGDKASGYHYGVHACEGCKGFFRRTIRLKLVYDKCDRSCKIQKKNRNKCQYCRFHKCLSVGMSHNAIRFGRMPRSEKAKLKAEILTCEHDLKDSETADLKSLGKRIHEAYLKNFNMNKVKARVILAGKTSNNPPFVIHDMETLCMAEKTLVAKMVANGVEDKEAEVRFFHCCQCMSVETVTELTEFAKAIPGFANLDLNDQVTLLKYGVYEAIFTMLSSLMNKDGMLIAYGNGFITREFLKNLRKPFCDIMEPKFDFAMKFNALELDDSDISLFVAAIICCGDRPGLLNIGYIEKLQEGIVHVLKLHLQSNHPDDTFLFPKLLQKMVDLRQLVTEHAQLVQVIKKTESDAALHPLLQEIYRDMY
Briefly: In vivo agonist activity at PPARalpha in high fat diet-induced nonalcoholic steatohepatitis C57BL/6J mouse model assessed as increase in LPL mRNA expression in liver administered at 3 mg/kg, po and measured after 24 hrs by quantitative real time PCR analysis. The format is functional, organism-based.

Data set [2] concerns the target T2, Peroxisome proliferator-activated receptor alpha (Homo sapiens, UniProt Q07869).
T2 sequence (Q07869 whole entry): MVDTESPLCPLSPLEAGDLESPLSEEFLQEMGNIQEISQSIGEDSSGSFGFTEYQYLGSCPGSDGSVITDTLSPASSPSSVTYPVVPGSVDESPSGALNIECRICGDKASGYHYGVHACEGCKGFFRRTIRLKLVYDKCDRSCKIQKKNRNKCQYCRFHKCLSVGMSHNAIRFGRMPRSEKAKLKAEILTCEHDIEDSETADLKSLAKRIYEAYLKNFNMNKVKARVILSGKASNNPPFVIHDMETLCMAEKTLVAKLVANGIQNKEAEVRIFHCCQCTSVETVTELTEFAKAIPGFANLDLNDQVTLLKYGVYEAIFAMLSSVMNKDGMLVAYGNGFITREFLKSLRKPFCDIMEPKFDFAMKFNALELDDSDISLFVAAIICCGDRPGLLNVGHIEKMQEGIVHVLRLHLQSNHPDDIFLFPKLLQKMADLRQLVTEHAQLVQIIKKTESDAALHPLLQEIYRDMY
Briefly: Agonist activity at Gal4-fused human PPARalpha co-expressed with RXRalpha in monkey CV1 cells assessed as PPRE transcriptional activation incubated for 45 hrs by luciferase reporter gene assay. The format is cell-based, CV-1.

Data set [3] has as its target T3, Peroxisome proliferator-activated receptor delta (Homo sapiens, UniProt Q03181).
T3 sequence (Q03181 whole entry): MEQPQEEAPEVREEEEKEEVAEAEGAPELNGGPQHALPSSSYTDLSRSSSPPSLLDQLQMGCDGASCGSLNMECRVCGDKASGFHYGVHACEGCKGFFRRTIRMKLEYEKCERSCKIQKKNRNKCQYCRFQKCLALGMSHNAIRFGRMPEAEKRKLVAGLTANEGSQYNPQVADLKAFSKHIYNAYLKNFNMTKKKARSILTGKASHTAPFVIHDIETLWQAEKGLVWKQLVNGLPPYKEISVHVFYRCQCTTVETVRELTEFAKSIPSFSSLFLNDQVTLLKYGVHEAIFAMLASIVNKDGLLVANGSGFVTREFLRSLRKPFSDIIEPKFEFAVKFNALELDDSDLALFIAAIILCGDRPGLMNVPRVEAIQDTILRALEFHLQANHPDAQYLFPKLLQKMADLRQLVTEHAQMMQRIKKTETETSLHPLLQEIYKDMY
Briefly: Agonist activity at Gal4-fused human PPARdelta expressed in monkey CV1 cells assessed as receptor transactivation incubated for 45 hrs by luciferase reporter gene assay. Type of data set: cell-based, CV-1. Background: Reporter assays use an easily measured gene product as a stand-in for the process of interest.

The test system of data set [4] is Mus musculus. Briefly: Upregulation of PPARalpha expression in liver of high fat diet-induced nonalcoholic steatohepatitis C57BL/6J mouse model at 3 mg/kg, po and measured after 24 hrs by quantitative real time PCR analysis. The format is functional, organism-based. On the technique in general: In qPCR the cycle at which signal appears reflects the starting amount.

Data set [5] has as its target T4, Peroxisome proliferator-activated receptor gamma (Homo sapiens, UniProt P37231).
T4 sequence (P37231 whole entry): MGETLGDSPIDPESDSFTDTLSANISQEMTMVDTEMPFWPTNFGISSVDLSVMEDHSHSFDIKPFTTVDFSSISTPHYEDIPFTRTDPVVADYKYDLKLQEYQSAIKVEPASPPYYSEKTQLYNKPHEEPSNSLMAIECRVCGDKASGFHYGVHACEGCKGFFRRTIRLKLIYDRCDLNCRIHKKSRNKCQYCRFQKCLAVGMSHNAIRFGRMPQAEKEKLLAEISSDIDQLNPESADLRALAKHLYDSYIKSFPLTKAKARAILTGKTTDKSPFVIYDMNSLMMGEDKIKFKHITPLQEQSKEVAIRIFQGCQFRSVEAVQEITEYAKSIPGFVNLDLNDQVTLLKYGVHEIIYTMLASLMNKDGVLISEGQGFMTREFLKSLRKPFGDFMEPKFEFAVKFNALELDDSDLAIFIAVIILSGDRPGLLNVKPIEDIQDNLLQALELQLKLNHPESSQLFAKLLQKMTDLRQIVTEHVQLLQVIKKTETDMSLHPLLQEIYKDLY
Briefly: Agonist activity at Gal4-fused human PPARgamma expressed in monkey CV1 cells assessed as receptor transactivation incubated for 45 hrs by luciferase reporter gene assay. The format is cell-based, CV-1.

Data set [6] addresses T1, Peroxisome proliferator-activated receptor alpha (Mus musculus). The data set is described as follows: In vivo agonist activity at PPARalpha in high fat diet-induced nonalcoholic steatohepatitis C57BL/6J mouse model assessed as increase in ACOX1 mRNA expression in liver administered at 3 mg/kg, po and measured after 24 hrs by quantitative real time PCR analysis. Type of data set: functional, organism-based.

The target is the same in data set [7]. Briefly: In vivo agonist activity at PPARalpha in high fat diet-induced nonalcoholic steatohepatitis C57BL/6J mouse model assessed as trans-repression of ApoC3 mRNA expression in liver administered at 3 mg/kg, po and measured after 24 hrs by quantitative real time PCR analysis. Type of data set: functional, organism-based.
Data set [8] has the same target. The data set is described as follows: In vivo agonist activity at PPARalpha in high fat diet-induced nonalcoholic steatohepatitis C57BL/6J mouse model assessed as increase in Cyp4a3 mRNA expression in liver administered at 3 mg/kg, po and measured after 24 hrs by quantitative real time PCR analysis. Type of data set: functional, organism-based.
Data set [9] has as its system Mus musculus. The data set is described as follows: Hypolipidemic activity in high fat diet-induced nonalcoholic steatohepatitis C57BL/6J mouse model assessed as reduction in plasma triglyceride level at 3 mg/kg, po administered via gavage and measured after 24 hrs. Type of data set: functional.
In data set [10] the target is T5, Peroxisome proliferator-activated receptor alpha (Mus musculus, UniProt P23204).
T5 sequence (P23204 whole entry): T1 sequence (whole entry)
The data set is described as follows: Agonist activity at Gal4-fused mouse PPARalpha co-expressed with RXRalpha in monkey CV1 cells assessed as PPRE transcriptional activation incubated for 45 hrs by luciferase reporter gene assay. The format is cell-based, CV-1.

The target of data set [11] is T1, Peroxisome proliferator-activated receptor alpha (Mus musculus). Briefly: In vivo agonist activity at PPARalpha in high fat diet-induced nonalcoholic steatohepatitis C57BL/6J mouse model assessed as increase in Cyp4a3 mRNA expression in liver administered at 3 mg/kg, po administered once daily for 7 days by quantitative real time PCR analysis. Type of data set: functional, organism-based. Particulars: time 7.0 day.

The target is the same in data set [12]. The data set is described as follows: In vivo agonist activity at PPARalpha in high fat diet-induced nonalcoholic steatohepatitis C57BL/6J mouse model assessed as increase in LPL mRNA expression in liver administered at 3 mg/kg, po administered once daily for 7 days by quantitative real time PCR analysis. The format is functional, organism-based. Particulars: time 7.0 day.

Data set [13] has the same target. Briefly: In vivo agonist activity at PPARalpha in high fat diet-induced nonalcoholic steatohepatitis C57BL/6J mouse model assessed as increase in mACADM gene expression in liver at 3 mg/kg, po administered once daily for 7 days by quantitative real time PCR analysis. The format is functional, organism-based. Particulars: time 7.0 day.
The target is the same in data set [14]. Briefly: In vivo agonist activity at PPARalpha in high fat diet-induced nonalcoholic steatohepatitis C57BL/6J mouse model assessed as increase in mCPT1A gene expression in liver at 3 mg/kg, po administered once daily for 7 days and measured at >3 days by quantitative real time PCR analysis. Particulars: time day >3. The format is functional, organism-based.

Data set [15] can be described thus: Toxicity in high fat diet-induced nonalcoholic steatohepatitis C57BL/6J mouse model assessed as increase in plasma glucose level at 3 mg/kg, po administered once daily for 7 days and measured after 4 days. The format is organism-based. Particulars: in vivo, 96 h, time 4 day.

pEC50: −log10 of the molar value. Activity calls are given as the source filed them. The rule behind the calls is not given here. Bounds are passed on as bounds.

For orientation: pEC50 means the EC50 on a negative log10 scale, so that one unit is a factor of ten. One may read the inhibition in vivo as how much of the control response was suppressed. As to `Cc1ccc(Cn2nc(CCCc3ccc(OC(C)(C)C(=O)O)cc3)n(Cc3ccc(C)cc3)c2=O)cc1`, the result in data set [1] and in [4] was Active. Besides, the pEC50 is 9.07 in data set [2], below 5.00 in data set [3] and below 5.00 in data set [5]. The result in data set [6], in data set [7] and in data set [8] was inactive. Also, the inhibition in vivo at 3 mg/kg in [9] was at least 50%.

For `COc1cc(Cn2c(CCCc3ccc(OC(C)(C)C(=O)O)cc3)nn(Cc3ccc(C)cc3)c2=O)cc(OC)c1OC`, the outcome in [1], in data set [4], in data set [6], in data set [7] and in [8] was Active. Also, the pEC50 in data set [3] and in data set [5] was below 5.00 in each case. In addition, the inhibition in vivo at 3 mg/kg in [9] was at least 50%.

For `Cc1ccc(Cn2nc(CCCc3ccc(OC(C)(C)C(=O)O)cc3)n(Cc3ccc(F)cc3)c2=O)cc1`, the result in [1], in data set [4], in [6], in data set [7] and in data set [8] was Active. The pEC50 in [2] is 9.02; in [3] it was below 5.00; in data set [5], below 5.00. In data set [9], the inhibition in vivo at 3 mg/kg is at least 50%.

Turning to `Cc1ccc(Cn2nc(CCCc3ccc(OC(C)(C)C(=O)O)cc3)n(Cc3ccccc3)c2=O)cc1`, the result in data set [1], in data set [4], in data set [6], in data set [7] and in data set [8] was Active. The pEC50 in data set [3] and in data set [5] was below 5.00 in each case. The inhibition in vivo at 3 mg/kg in data set [9] is at least 50%.

For the molecule `C=Cc1ccc(Cn2nc(CCCc3ccc(OC(C)(C)C(=O)O)cc3)n(Cc3ccc(C)cc3)c2=O)cc1`, the result in [1], in [4], in data set [6], in data set [7] and in data set [8] was Active. For the same molecule, the pEC50 was 7.92 in data set [2], below 5.00 in data set [3], 7.70 in data set [10] and below 5.00 in data set [5]. Besides, the inhibition in vivo at 3 mg/kg in data set [9] is at least 50%.

In the case of `COc1cccc(Cn2c(CCCc3ccc(OC(C)(C)C(=O)O)cc3)nn(Cc3ccc(C)cc3)c2=O)c1`, the result in data set [1], in data set [4], in data set [6], in data set [7] and in data set [8] was Active. Besides, the pEC50 is 9.00 in data set [2], below 5.00 in [3] and below 5.00 in [5]. Moreover, the inhibition in vivo at 3 mg/kg in [9] was at least 50%.

As to `COc1ccc(Cn2c(CCCc3ccc(OC(C)(C)C(=O)O)cc3)nn(Cc3ccc(C(C)(C)C)cc3)c2=O)cc1`, the outcome in data set [4], in [6], in data set [7] and in data set [8] was Active. Further, the inhibition in vivo at 3 mg/kg in [9] is at least 50%.

Regarding `CC(C)(Sc1ccc(CCN(CCCCC2CCCCC2)C(=O)NC2CCCCC2)cc1)C(=O)O` [GW7647], the outcome in [11], in data set [13] and in data set [14] was Active. Besides, the outcome in [12], in [6] and in data set [8] was inactive. In data set [15], the Activity entry is listed as “Toxic”. In addition, the inhibition in vivo at 3 mg/kg in data set [9] was at least 50%.

For the molecule `Cc1ccc(Cn2nc(CCCc3ccc(OC(C)(C)C(=O)O)cc3)n(Cc3ccc(Cl)cc3)c2=O)cc1`, the result in [1], in [4], in data set [6], in data set [7] and in data set [8] was Active. The pEC50 is 9.00 in data set [2], below 5.00 in [3], 8.00 in data set [10] and below 5.00 in data set [5]. Also, the inhibition in vivo at 3 mg/kg in data set [9] was at least 50%.

The record behind these values is ChEMBL document CHEMBL4811278, “Discovery of novel modulators for the PPARα (peroxisome proliferator activated receptor α): Potential therapies for nonalcoholic fatty liver disease” (Bioorg Med Chem, 2021).
